This assay has as its target T1, MAT2A homodimer (Homo sapiens, UniProt P31153).
T1 construct: inferred from Ni sepharose purification and imidazole elution; made in house; host or cells: Sf9 insect cells, recombinant baculovirus (Bac to Bac, pFASTBAC1)
The experiment in a line: Biochemical assay: inhibition of MAT2A (phosphate release, PiColorLock Gold). The settings on record: MAT2A IC50 score; read-out: Enzyme Inhibition (Example 275). The method, then: Mat2A protein was expressed by recombinant baculovirus in SF9 infected cells using the Bac to Bac system cloned into the pFASTBAC1 vector (Invitrogen, Carlsbad, Calif.). Recombinant MAT2A was isolated from the cell lysate of 150 g of infected cells using HP Ni sepharose column chromatography. Recombinant MAT2A homodimer was eluted with 250 and 500 mM imidazole, and fractions containing MAT2A were identified by sodium dodecyl sulfate polyacrylamide gel electrophoresis and pooled.
For determination of the inhibitory potency of compounds against the MAT2A homodimer, protein was diluted to […] in assay buffer (50 mM Tris, pH 8.0, 50 mM KCl, 15 mM MgCl2, 0.3 mM EDTA, 0.005% [w/v] bovine serum albumin [BSA]). Test compound was prepared in 100% dimethyl sulfoxide (DMSO) at 50× the desired final concentration. […] of compound dilution was added to 40 μL of enzyme dilution and the mixture was allowed to equilibrate for 60 minutes at 25° C. The enzymatic assay was initiated by the addition of 10 μL of substrate mix (500 μM ATP, pH 7.0, 400 μM L-methionine in 1× assay buffer), and the mixture was incubated for a further 60 minutes at 25° C. The reaction was halted and the liberated phosphate released by the enzyme in stoichiometric amounts by the production of S-adenosyl methionine (SAM) was measured using the PiColorLock Gold kit (Innova Biosciences, UK). Absolute product amounts were determined by comparison to a standard curve of potassium phosphate buffer, pH 8.0.
T1 sequence (P31153 whole entry): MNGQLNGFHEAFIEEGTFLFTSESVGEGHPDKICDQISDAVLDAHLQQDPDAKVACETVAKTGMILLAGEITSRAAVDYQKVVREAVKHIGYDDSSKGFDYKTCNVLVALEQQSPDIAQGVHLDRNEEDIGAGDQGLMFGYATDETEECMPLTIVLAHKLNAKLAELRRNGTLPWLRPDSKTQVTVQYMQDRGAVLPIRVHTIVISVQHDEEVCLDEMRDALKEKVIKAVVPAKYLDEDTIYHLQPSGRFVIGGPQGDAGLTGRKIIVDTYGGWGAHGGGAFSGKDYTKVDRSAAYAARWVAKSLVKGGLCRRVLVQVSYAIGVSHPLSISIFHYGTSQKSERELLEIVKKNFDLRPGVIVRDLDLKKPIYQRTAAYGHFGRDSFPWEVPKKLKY
In the case of `Cn1cc2cc(-n3cc4ccc(CS(C)(=O)=O)nc4c(-c4ccc(Cl)cc4)c3=O)ccc2n1` [Example 135-A, 8-(4-chlorophenyl)-6-(2-methyl-2H-indazol-5-yl)-2-((methylsulfonyl)methyl)-1,6-naphthyridin-7(6H)-one], the IC50 is 100 to 1000 nM.
On to `COc1ccc(-n2cc3cnc(NCCC(F)(F)F)nc3c(-c3ccc(Br)cc3)c2=O)cc1` [Example 186, 8-(4-bromophenyl)-6-(4-methoxyphenyl)-2-((3,3,3-trifluoropropyl)amino)pyrido[4,3-d]pyrimidin-7(6)-one], for which the IC50 was 100 to 1000 nM.
With `Cc1nc2cc(-n3cc4cnc(NCC(F)(F)F)nc4c(-c4ccc(OC(F)F)cc4)c3=O)ccc2o1` [Example 149, 8-(4-(difluoromethoxy)phenyl)-6-(2-methylbenzo[d]oxazol-5-yl)-2-((2,2,2-trifluoroethyl)amino)pyrido[4,3-d]pyrimidin-7(6H)-one], the IC50 is less than 100 nM.
Regarding `COc1ccc(-n2cc3cnc(NCC(F)(F)F)nc3c(-c3ccc(C(F)(F)F)cc3)c2=O)cc1` [Example 197, 6-(4-methoxyphenyl)-2-((2,2,2-trifluoroethyl)amino)-8-(4-(trifluoromethyl)phenyl)pyrido[4,3-d]pyrimidin-7(6H)-one], the IC50 is 100 to 1000 nM.
As for `Cn1cc2cc(-n3cc4ccc(NCC(F)(F)F)nc4c(-c4ccc(CC(F)F)cc4)c3=O)ccc2n1` [Example 214, 8-(4-(2,2-difluoroethyl)phenyl)-6-(2-methyl-2H-indazol-5-yl)-2-((2,2,2-trifluoroethyl)amino)-1,6-naphthyridin-7(6H)-one], the IC50 is less than 100 nM.
Under `COc1ccc(N2Cc3cnc(NCC(F)(F)F)nc3C3(CCC(O)CC3)C2=O)cc1` (stereo not shown) [Example 116, 4-hydroxy-6′-(4-methoxyphenyl)-2′-((2,2,2-trifluoroethyl)amino)-5′H-spiro[cyclohexane-1,8′-pyrido[4,3-d]pyrimidin]-7′(6′H)-one] stands 1000 to 10000 nM; under `O=C1N(Cc2ccn[nH]2)Cc2cnc(NCC3CC3)nc2C12CCN(Cc1ccccc1F)C2` (stereo not shown) [Example 120, 6-((1H-pyrazol-5-yl)methyl)-2-((cyclopropylmethyl)amino)-1′-(2-fluorobenzyl)-5,6-dihydro-7H-spiro[pyrido[4,3-d]pyrimidine-8,3′-pyrrolidin]-7-one], 1000 to 10000 nM.
As for `O=c1c(-c2ccc(Cl)cc2)c2nc(NCC(F)(F)F)ncc2cn1-c1ccc2nnccc2c1` [Example 131, 8-(4-chlorophenyl)-6-(cinnolin-6-yl)-2-(2,2,2-trifluoroethylamino)pyrido[4,3-d]pyrimidin-7(6)-one], the IC50 is less than 100 nM.
As for `O=c1c(-c2ccc(C3CC3)cc2)c2nc(OCC(F)(F)F)ncc2cn1-c1ccc2ncccc2c1` [Example 267, 8-(4-cyclopropylphenyl)-6-(quinolin-6-yl)-2-(2,2,2-trifluoroethoxy)pyrido[4,3-d]pyrimidin-7(6H)-one], the IC50 is less than 100 nM.
Under `COc1ccc(-n2cc3cnc(NCC(F)(F)F)nc3c(-c3ccc(C4CCC4)cc3)c2=O)cc1` [Example 199, 8-(4-cyclobutylphenyl)-6-(4-methoxyphenyl)-2-((2,2,2-trifluoroethyl)amino)pyrido[4,3-d]pyrimidin-7(6H)-one] stands 1000 to 10000 nM; under `O=c1c(-c2ccc(Cl)cc2)c2nc(NCC(F)(F)F)ncc2cn1-c1ccc2nccn2c1` [Example 134, 8-(4-chlorophenyl)-6-(imidazo[1,2-a]pyridin-6-yl)-2-(2,2,2-trifluoroethylamino)pyrido[4,3-d]pyrimidin-7(6H)-one], less than 100 nM; under `COc1ccc(N2Cc3cnc(NCC(C)C)nc3C3(CCN(Cc4cc[nH]n4)C3)C2=O)cc1` (stereo not shown) [Example 113, 1′-((1H-pyrazol-3-yl)methyl)-2-(isobutylamino)-6-(4-methoxyphenyl)-5H-spiro[pyrido[4,3-d]pyrimidine-8,3′-pyrrolidin]-7(6H)-one], 100 to 1000 nM.
For `O=c1c(-c2ccc(OC(F)F)cc2)c2nc(OCC(F)(F)F)ncc2cn1-c1ccc2nc[nH]c2c1` [Example 266, 6-(H-benzo[d]imidazol-6-yl)-8-(4-(difluoromethoxy)phenyl)-2-(2,2,2-trifluoroethoxy)pyrido[4,3-d]pyrimidin-7(6H)-one], the IC50 lay within 100 to 1000 nM.
Under `COc1ccc(N2Cc3cnc(NC4CCC4)nc3C3(CCN(Cc4cc[nH]n4)C3)C2=O)cc1` (stereo not shown) [Example 112, 1′-((1H-pyrazol-3-yl)methyl)-2-(cyclobutylamino)-6-(4-methoxyphenyl)-5H-spiro[pyrido[4,3-d]pyrimidine-8,3′-pyrrolidin]-7(6H)-one] stands 100 to 1000 nM; under `COc1ccc(-n2cc3cnc(NCC(F)(F)F)nc3c(-c3ccc(N4CCC4)cc3)c2=O)cc1` [Example 204, 8-(4-(azetidin-1-yl)phenyl)-6-(4-methoxyphenyl)-2-((2,2,2-trifluoroethyl)amino)pyrido[4,3-d]pyrimidin-7(6H)-one], 100 to 1000 nM; under `O=c1c(-c2ccc(C3CC3)cc2)c2nc(NCC(F)(F)F)ncc2cn1-c1ccc2c(c1)CCO2` [Example 164, 8-(4-cyclopropylphenyl)-6-(2,3-dihydrobenzofuran-5-yl)-2-((2,2,2-trifluoroethyl)amino)pyrido[4,3-d]pyrimidin-7(6H)-one], less than 100 nM.
Under `COc1ccc(-n2cc3cnc(OCC(F)(F)F)nc3c(-c3ccc(Br)cc3)c2=O)cc1` [Example 261, 8-(4-bromophenyl)-6-(4-methoxyphenyl)-2-(2,2,2-trifluoroethoxy)pyrido[4,3-d]pyrimidin-7(6H)-one] stands less than 100 nM.
Under `O=C1N(c2cnoc2)Cc2cnc(NCC3CC3)nc2C12CCN(Cc1cscn1)C2` (stereo not shown) [Example 107, 2-((cyclopropylmethyl)amino)-6-(isoxazol-4-yl)-1′-(thiazol-4-ylmethyl)-5H-spiro[pyrido[4,3-d]pyrimidine-8,3′-pyrrolidin]-7(6H)-one] stands 1000 to 10000 nM; under `CCNc1ncc2c(n1)C1(CCN(Cc3cc[nH]n3)C1)C(=O)N(c1ccc(OC)cc1)C2` (stereo not shown) [Example 111, 1′-((1H-pyrazol-3-yl)methyl)-2-(ethylamino)-6-(4-methoxyphenyl)-5H-spiro[pyrido[4,3-d]pyrimidine-8,3′-pyrrolidin]-7(6H)-one], 1000 to 10000 nM.
Take `CC(C)n1cnc2ccc(-n3cc4cnc(NCC(F)(F)F)nc4c(-c4ccc(Cl)cc4)c3=O)cc21` [Example 128, 8-(4-chlorophenyl)-6-(1-isopropyl-1H-benzo[d]imidazol-6-yl)-2-(2,2,2-trifluoroethylamino)pyrido[4,3-d]pyrimidin-7(6H)-one]: the IC50 was less than 100 nM.
Under `COc1ccc(N2Cc3cnc(NCC4CC4)nc3C3(CCN(C4CCCCC4)C3)C2=O)cc1` (stereo not shown) [Example 104, 1′-cyclohexyl-2-((cyclopropylmethyl)amino)-6-(4-methoxyphenyl)-5H-spiro[pyrido[4,3-d]pyrimidine-8,3′-pyrrolidin]-7(6H)-one] stands 1000 to 10000 nM.
As for `Cc1nc2cc(-n3cc4cnc(NCC(F)(F)F)nc4c(-c4ccc(Cl)cc4)c3=O)ccc2o1` [Example 138, 8-(4-chlorophenyl)-6-(2-methylbenzo[d]oxazol-5-yl)-2-((2,2,2-trifluoroethyl)amino)pyrido[4,3-d]pyrimidin-7(6H)-one], the IC50 fell in the range of 100 to 1000 nM.
`Cn1cc2cc(-n3cc4cnc(NC5CC5)nc4c(-c4ccc(Cl)cc4)c3=O)ccc2n1` [Example 173, 8-(4-chlorophenyl)-2-(cyclopropylamino)-6-(2-methyl-2H-indazol-5-yl)pyrido[4,3-d]pyrimidin-7(6H)-one]: the IC50 is less than 100 nM.
Turning to `O=C1N(c2cnoc2)Cc2cnc(NCC3CC3)nc2C12CCN(Cc1ccon1)C2` (stereo not shown) [Example 106, 2-((cyclopropylmethyl)amino)-1′-(isoxazol-3-ylmethyl)-6-(isoxazol-4-yl)-5H-spiro[pyrido[4,3-d]pyrimidine-8,3′-pyrrolidin]-7(6H)-one], the IC50 lay within 1000 to 10000 nM.
Under `CCOc1ncc2cn(-c3ccc4ncccc4c3)c(=O)c(-c3ccc(OC(F)F)cc3)c2n1` [Example 271, 8-(4-(difluoromethoxy)phenyl)-2-ethoxy-6-(quinolin-6-yl)pyrido[4,3-d]pyrimidin-7(6H)-one] stands less than 100 nM; under `O=c1c(-c2ccc(Cl)cc2)c2nc(NCC(F)(F)F)ncc2cn1-c1ccc2n[nH]cc2c1` [Example 142, 8-(4-chlorophenyl)-6-(2H-indazol-5-yl)-2-((2,2,2-trifluoroethyl)amino)pyrido[4,3-d]pyrimidin-7(6H)-one], 100 to 1000 nM; under `O=C1N(c2ccc3nc[nH]c3c2)Cc2cnc(NCC3CC3)nc2C12CCN(Cc1cc[nH]n1)C2` (stereo not shown) [Example 109, 1′-((H-pyrazol-3-yl)methyl)-6-(1H-benzo[d]imidazol-6-yl)-2-((cyclopropylmethyl)amino)-5H-spiro[pyrido[4,3-d]pyrimidine-8,3′-pyrrolidin]-7(6H)-one], 100 to 1000 nM.
In the case of `O=c1c(-c2ccc(OCC(F)F)cc2)c2nc(NCC(F)(F)F)ncc2cn1-c1ccc2ncccc2c1` [Example 201, 8-(4-(2,2-difluoroethoxy)phenyl)-6-(quinolin-6-yl)-2-((2,2,2-trifluoroethyl)amino)pyrido[4,3-d]pyrimidin-7(6H)-one], the IC50 was 100 to 1000 nM.

The record behind these values is patent US11524960B2, “Heterobicyclic inhibitors of MAT2A and methods of use for treating cancer” (AGIOS PHARMACEUTICALS, INC., priority 2018, dated 2022).
